Laboratory results taken from the NIST ThermoML archive (doi:10.1016/j.jct.2011.11.021).
Numbers after ± are expanded uncertainties.

Test: activity coefficient (dimensionless); of the first substance listed, at infinite dilution; xn = mol fraction of the nth substance listed
Details: Liquid, Chromatography, x1 = 0

Structure (SMILES)	activity coefficient (318.15 K)	activity coefficient (328.15 K)	activity coefficient (338.15 K)	activity coefficient (348.15 K)	activity coefficient (358.15 K)	activity coefficient (368.15 K)
CCCCCCC [heptane] + COCC[N+]1(C)CCOCC1.O=S(=O)([N-]S(=O)(=O)C(F)(F)F)C(F)(F)F	54.4 ± 3.7	48.7 ± 3.3	43.8 ± 3	39.7 ± 2.7	36.2 ± 2.5	33.1 ± 2.3
CCCC=O [butanal] + COCC[N+]1(C)CCOCC1.O=S(=O)([N-]S(=O)(=O)C(F)(F)F)C(F)(F)F	0.871 ± 0.056	0.884 ± 0.056	0.891 ± 0.057	0.902 ± 0.057	0.909 ± 0.058	0.918 ± 0.058
CCC[N+](=O)[O-] [1-nitropropane] + COCC[N+]1(C)CCOCC1.O=S(=O)([N-]S(=O)(=O)C(F)(F)F)C(F)(F)F	–	0.791 ± 0.051	0.787 ± 0.051	0.783 ± 0.051	0.78 ± 0.051	0.778 ± 0.051
CCCCCC [hexane] + COCC[N+]1(C)CCOCC1.O=S(=O)([N-]S(=O)(=O)C(F)(F)F)C(F)(F)F	36.1 ± 2.5	32.6 ± 2.2	29.8 ± 2	27.2 ± 1.9	25 ± 1.7	23.1 ± 1.6
O [water] + COCC[N+]1(C)CCOCC1.O=S(=O)([N-]S(=O)(=O)C(F)(F)F)C(F)(F)F	2.49 ± 0.17	2.17 ± 0.15	1.94 ± 0.13	1.73 ± 0.12	1.55 ± 0.1	1.41 ± 0.09
C1CCCC1 [cyclopentane] + COCC[N+]1(C)CCOCC1.O=S(=O)([N-]S(=O)(=O)C(F)(F)F)C(F)(F)F	12.2 ± 0.8	11.2 ± 0.8	10.4 ± 0.7	9.68 ± 0.66	9.1 ± 0.62	8.54 ± 0.58
CC(=O)O [acetic acid] + COCC[N+]1(C)CCOCC1.O=S(=O)([N-]S(=O)(=O)C(F)(F)F)C(F)(F)F	–	0.451 ± 0.036	0.456 ± 0.036	0.459 ± 0.036	0.465 ± 0.036	0.468 ± 0.037
